In patent EP0037049A1, “Biphenylyl-imidazolylethane derivatives, process for their preparation and medicaments containing them” (BAYER AG, priority 1980, dated 1981):

Test system: Dermatophyten, Schimmelpilze, Hefen
Experiment: Antifungal in-vitro activity, serial dilution test
Assay type: cell-based
Conditions: incubation at 28°C, 24 h for yeasts, 96 h for dermatophytes and moulds, activity stated to be superior to prior-art compounds (A), (B), (C) and (D)
Procedure: Die in-vitro-Prüfung wurde im Reihenverdünnungstest mit Keiminokula von durchschnittlich […] Substrat durchgeführt. Als Nährmedium dienten • a) für Dermatophyten und Schimmelpilze: Sabourand's milieu d'epresive • b) für Hefen: • Isotonic Sensitest-Broth von Oxid.
Die Bebrütungstemperatur betrug 28°C; Bebrütungsdauer war 24 Stunden bei Hefen und 96 Stunden bei Dermatophyten und Schimmelpilzen.

Q: With Fc1ccccc1C(Cn1ccnc1)c1ccc(-c2ccccc2)cc1 (stereo not shown) [Beispiel 6] as the compound, how does the “Antimykotische in-vitro-Wirksamkeit (Wirkung)” value read?
A: sehr gute Wirkung

Q: With Clc1cccc(C(Cn2ccnc2)c2ccc(-c3ccccc3)cc2)c1 (stereo not shown) [Beispiel 7] as the compound, how does the “Antimykotische in-vitro-Wirksamkeit (Wirkung)” value read?
A: sehr gute Wirkung

Q: Which “Antimykotische in-vitro-Wirksamkeit (Wirkung)” value does the source give for Clc1ccc(-c2ccc(C(Cn3cncn3)c3ccccc3Cl)cc2)cc1 (stereo not shown) [Beispiel 8] here?
A: sehr gute Wirkung

Q: Clc1ccccc1C(Cn1ccnc1)c1ccc(-c2ccccc2)cc1 (stereo not shown) [Beispiel 5] was tested. Which “Antimykotische in-vitro-Wirksamkeit (Wirkung)” value did it give?
A: sehr gute Wirkung
